Results published in patent US10160771B2, “Hepatitis C virus inhibitors and uses thereof in preparation of drugs” (priority 2014, dated 2018).

Tests used:
[1] = tested on: HCV genotype 1a (HCV-1a) replicon cells; test: HCV genotype 1a replicon luciferase assay (EC50); format: cell-based, hepatitis C virus genotype 1a (H77 clone); conditions: Hepatitis C virus, 72 h, 3 days, luciferase (Bright-Glo)
In short: (§1)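 Compounds were dispensed as 5-fold, 6-point series (highest 100, 10 or 1 nM; 0.5% DMSO) in duplicate. Replicon cells expressing luciferase (H77-derived for 1a, Con1-derived for 1b) were added at 8000 per well and grown 3 days. Luciferase activity was then measured and EC50 fitted.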

[2] = Cell Titer-fluor cell activity assay in HCV-1b replicon cells (CC50); format: cell-based
In short: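 Con1 genotype 1b replicon cells (E1202G, T1280I, K1846T adaptive mutations), 8000 cells/well, exposed to 6-point 5-fold dilutions from 100, 10 or 1 nM top concentration in 0.5% DMSO, duplicate wells, 3 days at 37 °C. Viability read by Cell Titer-fluor (Ex 405/Em 515 nm) after 30 min; CC50 from nonlinear fit of inhibition %.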

[3] = tested on: HCV genotype 1b (HCV-1b) replicon cells; test: HCV genotype 1b replicon luciferase assay (EC50); format: cell-based, hepatitis C virus genotype 1b (Con1 clone); conditions: Hepatitis C virus, 72 h, 3 days, luciferase (Bright-Glo)
In short: as §1

SMILES | EC50 [1] [nM] | CC50 at 3 days [2] [nM] | EC50 [3] [nM]
COC(=O)N[C@H](C(=O)N1CCC[C@H]1c1ncc(-c2ccc(-c3ccc(-c4cnc([C@H]5C6CCC(C6)[C@@H]5C(=O)NCc5cccnc5F)[nH]4)cc3)cc2)[nH]1)C(C)C (stereo partly drawn) [AA_224_A] | 1 to 10 | > 1 | 0.001 to 0.1
COC(=O)N[C@H](C(=O)N1CCC[C@H]1c1ncc(-c2ccc(-c3ccc(-c4cnc([C@@H]5C6CCC(C6)C5C(=O)NCc5cccnc5)[nH]4)cc3)nc2)[nH]1)[C@@H](C)OC (stereo partly drawn) [AA_242_B] | 10 to 100 | > 1 | 0.101 to 1
COC(=O)N[C@H](C(=O)N1CCC[C@H]1c1ncc(-c2ccc(-c3ccc(-c4cnc(C5C6CCC(C6)[C@@H]5C(=O)N(NC(=O)OC)C(C)C)[nH]4)cc3)c(OC)c2)[nH]1)C(C)C (stereo partly drawn) [AA_190_A] | 10 to 100 | > 1 | 0.101 to 1
COC(=O)N[C@H](C(=O)N1CCC[C@H]1c1ncc(-c2ccc(-c3ccc(-c4cnc([C@@H]5[C@H]6CC[C@H](C6)[C@H]5C(=O)NC5(c6ccccc6)CC5)[nH]4)cc3)cc2)[nH]1)C(C)C [AA_273_ENDOA2] | 1 to 10 | > 1 | 0.001 to 0.1
COC(=O)N[C@H](C(=O)N1CCC[C@H]1c1ncc(-c2ccc(-c3ccc(-c4cnc(C5C6CCC(C6)[C@@H]5C(=O)NCc5cccnc5SC)[nH]4)cc3)cc2)[nH]1)[C@@H](C)OC (stereo partly drawn) [AA_259_A] | 10 to 100 | > 1 | 0.001 to 0.1
COC(=O)N[C@H](C(=O)N1CCC[C@H]1c1ncc(-c2ccc(-c3ccc(-c4cnc(C5C6CCC(C6)[C@H]5C(=O)NCCc5ccncc5)[nH]4)cc3)cc2)[nH]1)[C@@H](C)OC (stereo partly drawn) [AA_266_B] | 10 to 100 | > 1 | 0.101 to 1
COC(=O)N[C@H](C(=O)N1CCC[C@H]1c1ncc(-c2ccc(-c3ccc(-c4cnc(C5CCCC[C@@H]5C(=O)N(NC(=O)OC)C(C)C)[nH]4)cc3F)cc2)[nH]1)C(C)C (stereo partly drawn) [AA_117] | 10 to 100 | > 10 | 0.101 to 1
COC(=O)N[C@H](C(=O)N1CCC[C@H]1c1ccc(-c2ccc(-c3ccc(-c4cnc([C@@H]5CCCN5C(=O)[C@@H](NC(=O)OC)[C@@H](C)OC)[nH]4)cc3)cc2)[nH]1)C(C)C [AG_061_A] | 0.101 to 1 | > 1 | 0.001 to 0.1
COC(=O)N[C@H](C(=O)N1CCC[C@H]1c1ncc(-c2ccc(-c3ccc(-c4cnc([C@H]5C6CCC(C6)[C@@H]5C(=O)NCc5cccnc5OC)[nH]4)cc3)cc2)[nH]1)C(C)C (stereo partly drawn) [AA_203_A] | 1 to 10 | > 1 | 0.001 to 0.1
COC(=O)N[C@H](C(=O)N1CCC[C@H]1c1ncc(-c2ccc(-c3ccc(-c4cnc(C5C6CCC(C6)[C@H]5C(=O)NCc5cccnc5O)[nH]4)cc3)cc2)[nH]1)[C@@H](C)OC (stereo partly drawn) [AA_263_C] | 10 to 100 | > 1 | 0.101 to 1
COC(=O)N[C@H](C(=O)N1CCC[C@H]1c1ncc(-c2ccc(-c3ccc(-c4cnc([C@H]5C6CCC(C6)[C@@H]5C(=O)NCc5cccnc5C)[nH]4)cc3)cc2)[nH]1)C(C)C (stereo partly drawn) [AA_217] | 10 to 100 | > 1 | 1 to 10
COC(=O)N[C@H](C(=O)N1CCC[C@H]1c1ncc(-c2ccc(-c3ccc(-c4cnc([C@@H]5C6CCC(C6)[C@H]5C(=O)NCCO)[nH]4)cc3)cc2)[nH]1)C(C)C (stereo partly drawn) [AA_193] | 1 to 10 | > 1 | 0.001 to 0.1
COC(=O)N[C@H](C(=O)N1CCC[C@H]1c1ncc(-c2ccc(-c3ccc(-c4cnc(C5C6CCC(C6)[C@H]5C(=O)N[C@@H](C)c5ccccc5)[nH]4)cc3)cc2)[nH]1)[C@@H](C)OC (stereo partly drawn) [AA_262_B] | 0.101 to 1 | > 1 | 0.001 to 0.1
COC(=O)N[C@H](C(=O)N1CCC[C@H]1c1ncc(-c2ccc(-c3ccc(-c4cnc([C@@H]5C6CCC(C6)[C@H]5C(=O)NCc5ccco5)[nH]4)cc3)cc2)[nH]1)C(C)C (stereo partly drawn) [AA_198_B] | 10 to 100 | > 1 | 0.001 to 0.1
COC(=O)N[C@H](C(=O)N1CCC[C@H]1c1ncc(-c2ccc(-c3ccc(-c4cnc([C@@H]5C6CCC(C6)[C@H]5C(=O)NCc5cccnc5C(F)(F)F)[nH]4)cc3)cc2)[nH]1)C(C)C (stereo partly drawn) [AA_216_B] | 10 to 100 | > 1 | 0.001 to 0.1
COC(=O)N[C@H](C(=O)N1CCC[C@H]1c1ncc(-c2ccc(-c3ccc(-c4cnc(C5C6CCC(C6)[C@@H]5C(=O)NCc5cccnc5C(C)C)[nH]4)cc3)cc2)[nH]1)[C@@H](C)OC (stereo partly drawn) [AA_245_B] | 10 to 100 | > 1 | 0.101 to 1
COC(=O)N[C@H](C(=O)N1CCC[C@H]1c1ncc(-c2ccc3c(c2)C(=O)c2cc(-c4cnc(C5C6CCC(C6)[C@H]5C(=O)NCc5cccnc5)[nH]4)ccc2-3)[nH]1)C(C)C (stereo partly drawn) [AA_239] | 1 to 10 | > 1 | 0.001 to 0.1
COC(=O)N[C@H](C(=O)N1CCC[C@H]1c1ccc(-c2ccc(-c3ccc(-c4cnc([C@@H]5CC6(CN5C(=O)[C@H](NC(=O)OC)C(C)C)OCC(C)(C)CO6)[nH]4)cc3)cc2)[nH]1)C(C)C [AG_076] | 10 to 100 | > 5 | 0.001 to 0.1
COC(=O)N[C@H](C(=O)N1CCC[C@H]1c1ncc(-c2ccc(-c3ccc(-c4cnc([C@@H]5C6CCC(C6)[C@H]5C(=O)NCc5ccc(C(C)C)nc5)[nH]4)cc3)cc2)[nH]1)C(C)C (stereo partly drawn) [AA_236_B] | 10 to 100 | > 1 | 0.101 to 1
COC(=O)N[C@H](C(=O)N1CCC[C@H]1c1ncc(-c2ccc(-c3ccc(-c4cnc([C@@H]5[C@H]6CC[C@H](C6)[C@H]5C(=O)N[C@H](CO)c5cccnc5)[nH]4)cc3)cc2)[nH]1)C(C)C [AA_243_ENDOA2_B] | 0.101 to 1 | > 1 | 0.001 to 0.1
COC(=O)N[C@H](C(=O)N1CCC[C@H]1c1ncc(-c2ccc(-c3ccc(-c4cnc(C5C6CCC(C6)[C@H]5C(=O)NCc5cccnc5)[nH]4)cc3)cc2)[nH]1)C(C)C (stereo partly drawn) [AA_162_A] | 1 to 10 | > 1 | 0.001 to 0.1
COC(=O)N[C@H](C(=O)N1CCC[C@H]1c1ncc(-c2ccc(-c3ccc(-c4cnc([C@H]5C6CCC(C6)[C@@H]5C(=O)NCc5ccccc5N)[nH]4)cc3)cc2)[nH]1)C(C)C (stereo partly drawn) [AA_194] | 10 to 100 | > 1 | 0.001 to 0.1
COC(=O)N[C@H](C(=O)N1CCC[C@H]1c1ccc(-c2ccc(-c3ccc(-c4cnc([C@@H]5CCCCN5C(=O)[C@@H](NC(=O)OC)[C@@H](C)OC)[nH]4)cc3)cc2)[nH]1)[C@@H](C)OC [AG_120] | 1 to 10 | > 1 | 0.001 to 0.1
COC[C@H](NC(=O)OC)C(=O)N1CCC[C@H]1c1ncc(-c2ccc(-c3ccc(-c4[nH]c([C@@H]5CCCN5C(=O)[C@@H](NC(=O)OC)C(C)C)c5c4CCC5)cc3)cc2)[nH]1 [AG_091] | 1 to 10 | > 1 | 0.001 to 0.1
COC(=O)N[C@H](C(=O)N1CCC[C@H]1c1[nH]c(-c2ccc(-c3ccc(-c4cnc([C@@H]5CCCN5C(=O)[C@@H](NC(=O)OC)[C@@H](C)OC)[nH]4)cc3)cc2)c2c1CCCC2)C(C)C [AG_067] | 10 to 100 | > 1 | 0.001 to 0.1
COC(=O)NC(C(=O)N1CCC[C@H]1c1ncc(-c2ccc(-c3ccc(-c4cnc(C5CCCC[C@@H]5C(=O)N(NC(=O)OC)C(C)C)[nH]4)cc3)cc2)[nH]1)C1CCOCC1 (stereo partly drawn) [AA_109] | 10 to 100 | > 100 | 0.101 to 1
COC(=O)N[C@H](C(=O)N1C[C@@H](OC)C[C@H]1c1ncc(-c2ccc(-c3ccc(-c4cnc([C@@H]5C6CCC(C6)[C@H]5C(=O)NCc5cccnc5)[nH]4)cc3)cc2)[nH]1)C(C)C (stereo partly drawn) [AA_230_A] | 0.101 to 1 | > 1 | 0.001 to 0.1
COC(=O)N[C@H](C(=O)N1CCCC1c1ccc(-c2ccc(-c3ccc(-c4cnc([C@@H]5COC(C)(C)N5C(=O)[C@@H](NC(=O)OC)C(C)C)[nH]4)cc3)cc2)[nH]1)C(C)C (stereo partly drawn) [AG_022] | 10 to 100 | > 10 | 0.101 to 1
COC(=O)N[C@H](C(=O)N1CCC[C@H]1c1ncc(-c2ccc(-c3ccc(-c4cnc([C@H]5C6CCC(C6)[C@@H]5C(=O)NCc5nccs5)[nH]4)cc3)cc2)[nH]1)C(C)C (stereo partly drawn) [AA_208_A] | 1 to 10 | > 1 | 0.001 to 0.1
